Test results from patent publication US20110098296A1, “Thiazole And Oxazole Kinase Inhibitors” (priority 2007, published 2011).
Structures can show the parent of a compound that is named as a salt.

Tests used:
EGFR = biological target: T1, EGFR (Homo sapiens, UniProt P00533); test: EGFR substrate phosphorylation assay (HTRF); type: biochemical
T1 construct: made in house; host or cells: baculovirus expression system
Method: (§1) Compounds of the present invention were tested for EGFR and ErbB-2 protein tyrosine kinase inhibitory activity in substrate phosphorylation assays using enzymes purified from a baculovirus expression system. Reagent production was conducted essentially as described in Brignola, P. S., et al., (2002) J. Biol. Chem. 277(2):1576-1585.
(§2) The method measures the ability of the isolated enzyme to catalyse the transfer of the gamma-phosphate from ATP onto the tyrosine residue of a biotinylated synthetic peptide referenced “Peptide C” in Brignola, P. S., et al., (2002) J. Biol. Chem. 277(2):1576-1585. The extent of tyrosine phosphorylation was measured using an anti-phosphotyrosine antibody, and quantified by homogenous time-resolved fluorescence (HTRF).
(§3) Reactions were performed in black 384-well polystyrene flat-bottom plates in a final volume of 20 μl. Assays were performed by adding 10 μl of each of the following solutions, Substrate Mix and Enzyme Mix: The Substrate Mix contained 100 mM 3-[N-morpholino]propanesulfonic acid (MOPS) (pH 7.5), 2 mM MnCl2, 20 μM ATP, 0.01% Tween-20, 0.1 mg/mL (BSA), 0.8 uM peptide substrate, and 1 mM dithiothreitol. The Enzyme Mix contained 100 mM MOPS (pH 7.5); 0.01% Tween-20; 0.1 mg/mL BSA, and either 0.8 nM EGFR, 10 nM ErbB2, or 1 nM ErbB4
(§4) During the course of these studies, two separate methods have been used to measure the potency of compounds. In Method A (indicated as “(A)” in the tables below), the Enzyme Mix was added to the compound plates and the plates were incubated at 20° C. for 1 hr. The reactions were then started by adding the Substrate Mix. In Method B (indicated as “(B)” in the tables below), the Substrate Mix was added to the compound plates first, then the reaction was started by adding the Enzyme Mix.
(§5) After initiating the reaction with either method describe above, the reactions were allowed to proceed for 90 minutes at 20° C. The reactions were then terminated by the addition of 20 μL 100 mM EDTA to each well. 40 μL/well of HTRF detection mix were added to the assay plates. The final concentrations of the detection reagents were: 100 mM HEPES (pH7.5), 0.1 mg/mL BSA, 15 nM streptavidin-labeled allophycocyanin (PerkinElmer), and 1 nM europium-labeled anti-phosphotyrosine antibody (PerkinElmer). Assay plates were left unsealed and were counted in a Wallac Multilabel Counter 1420 (PerkinElmer).
(§6) Compounds under analysis were dissolved in dimethylsulfoxide (DMSO) to 1.0 mM and serially diluted 1 to 3 with DMSO through twelve dilutions. 1 μL of each concentration was transferred to the corresponding well of an assay plate. This creates a final compound concentration range from 0.00027 to 47.6 μM.
(§7) The data for dose responses were plotted as % Inhibition calculated with the data reduction formula 100*(1−(U1−C2)/(C1−C2)) versus concentration of compound where U1 is the unknown value, C1 is the average control value obtained for 4.76% DMSO, and C2 is the average control value obtained for 0.035 M EDTA. Data were fitted with a curve described by:
(§8) where Vmax is the upper asymptote, Y2 is the Y intercept, and K is the IC50. The results for each compound were recorded as pIC50s, calculated as follows: […]

ErbB2 = biological target: T2, ErbB2 (Homo sapiens, UniProt P04626); test: ErbB-2 substrate phosphorylation assay (HTRF); type: biochemical
T2 construct: made in house; host or cells: baculovirus expression system
Method: as §1, §2, §3, §4, §5, §6, §7, §8

Colo205 tumor cells = test: Method C: Cell Growth Inhibition Assay (CellTiter-Glo), Colo205; type: cell-based; settings: Homo sapiens, COLO 205, 72 h, 3 days, 4-parameter fit
Method: (§9) Human breast tumor cells (BT474) were cultured in RPMI (Mediatech 50-011-PB), containing 10% FBS (JRH Biosciences 12176) and 1% penicillin-streptomycin (Invitrogen 15140). Human head and neck tumor cells (HN5) were cultured in high glucose DMEM (Mediatech 50-013-PB) containing 10% FBS and 1% penicillin-streptomycin. Human colon tumor cells (Colo205) were cultured in RPMI (Mediatech 50-020-PB) containing 10% FBS and 1% penicillin-streptomycin. Human melanoma cancer cells (SK-MEL-28) were cultured in EMEM with nonessential amino acids (Mediatech 50-011-PB) containing 10% FBS, 1% sodium pyruvate (JT Baker 3354-04), and 1% penicillin-streptomycin. Human melanoma cancer cells (A375P F11s) were cultured in RPMI (Mediatech 50-020-PB) containing 10% FBS, 1% sodium pyruvate, and 1% penicillin-streptomycin. Human colon cancer cells (HT-29) were cultured in high glucose DMEM (Mediatech 50-013-PB) containing 10% FBS and 1% penicillin-streptomycin. Human melanoma cancer cells (SK-MEL-3) were cultured in McCoy's 5A (50-025-PB) containing 15% FBS, and 1% penicillin-streptomycin. All cell lines were maintained at 37° C. in a humidified 5% CO2, 95% air incubator. Cells were harvested using trypsin/EDTA (Invitrogen 25200), counted using an haemocytometer, and plated. For 96-well assays (using white full-area NUNC plates cat. #136102), cells were plated in 105 μL at the following densities (cells/well): HN5, 500; Colo205, 500; SK-MEL-28, 500; A375P-F11s, 500; HT-29, 500; SK-MEL-3, 500; and BT474, 3000. For 384-well assays (white full-area NUNC plates, cat. #781080), cells were plated in 48 μL at the following densities (cells/well): HN5, 500; Colo205, 500; SK-MEL-28, 500; A375P-F11s, 500; HT29, 500; SK-MEL-3, 500; and BT474, 2000.
(§10) The next day, compounds were diluted as follow: For 96-well assays, 13.5 μL of compound in DMSO were diluted using nine (9) serial 1:3 dilutions of 4.5 μL in 9 μL of DMSO. Medium (270 μl/well of RPMI with 10% FBS and 1% penicillin-streptomycin) was added to the plates. Aliquots (7 μl) were added to cells in the final assay giving a final DMSO concentration of 0.2%. For 384-well assays, 15 μL of compound in DMSO were diluted using nine (9) serial 1:3 dilutions of 5 μL in 10 μL of DMSO, followed by a further dilution of 5 μL of compound with 95 μL of medium, of which 2 μL were added to cells in the final assay giving a final DMSO concentration of 0.2%. Cells were incubated at 37° C., 5% CO2 for 3 days.
(§11) Total ATP was measured (as a surrogate estimate of cell number) using CellTiter-Glo® reagent (Promega G7571). Briefly, plates were removed from the incubator and allowed to equilibrate to room temperature for 30 minutes. CellTiter-Glo® (25 μL or 55 μL for 384-well or 96-well assays, respectively) reagent was added to each well and plates were shaken on an orbital plate shaker for 2 mins. Plates were incubated without shaking for a further 30 mins and read on an LJL Analyst GT reader in luminometer mode with an integration time of 0.5 seconds per well. Percent inhibition of cell growth was calculated relative to DMSO vehicle-treated control wells. Concentration of compound required to give 50% inhibition of vehicle-treated control cell growth (IC50) was interpolated using a 4-parameter fit for determining IC50 using the following equation: Y=A+((B−A)/(1+((C/X)̂D))) where X=IC50.

BT474 tumor cells = test: Method C: Cell Growth Inhibition Assay (CellTiter-Glo), BT474; type: cell-based; settings: Homo sapiens, BT-474, 72 h, 3 days, 4-parameter fit
Method: as §9, §10, §11

SK-MEL-28 tumor cells = test: Method C: Cell Growth Inhibition Assay (CellTiter-Glo), SK-MEL-28; type: cell-based; settings: Homo sapiens, SK-MEL-28, 72 h, 3 days, 4-parameter fit
Method: as §9, §10, §11

[1] = Method (A): Enzyme Mix incubated with compound at 20° C. for 1 hr, reaction started by adding Substrate Mix
[2] = Method (B): Substrate Mix added to compound first, reaction started by adding Enzyme Mix

T2 sequence (P04626 23-1255): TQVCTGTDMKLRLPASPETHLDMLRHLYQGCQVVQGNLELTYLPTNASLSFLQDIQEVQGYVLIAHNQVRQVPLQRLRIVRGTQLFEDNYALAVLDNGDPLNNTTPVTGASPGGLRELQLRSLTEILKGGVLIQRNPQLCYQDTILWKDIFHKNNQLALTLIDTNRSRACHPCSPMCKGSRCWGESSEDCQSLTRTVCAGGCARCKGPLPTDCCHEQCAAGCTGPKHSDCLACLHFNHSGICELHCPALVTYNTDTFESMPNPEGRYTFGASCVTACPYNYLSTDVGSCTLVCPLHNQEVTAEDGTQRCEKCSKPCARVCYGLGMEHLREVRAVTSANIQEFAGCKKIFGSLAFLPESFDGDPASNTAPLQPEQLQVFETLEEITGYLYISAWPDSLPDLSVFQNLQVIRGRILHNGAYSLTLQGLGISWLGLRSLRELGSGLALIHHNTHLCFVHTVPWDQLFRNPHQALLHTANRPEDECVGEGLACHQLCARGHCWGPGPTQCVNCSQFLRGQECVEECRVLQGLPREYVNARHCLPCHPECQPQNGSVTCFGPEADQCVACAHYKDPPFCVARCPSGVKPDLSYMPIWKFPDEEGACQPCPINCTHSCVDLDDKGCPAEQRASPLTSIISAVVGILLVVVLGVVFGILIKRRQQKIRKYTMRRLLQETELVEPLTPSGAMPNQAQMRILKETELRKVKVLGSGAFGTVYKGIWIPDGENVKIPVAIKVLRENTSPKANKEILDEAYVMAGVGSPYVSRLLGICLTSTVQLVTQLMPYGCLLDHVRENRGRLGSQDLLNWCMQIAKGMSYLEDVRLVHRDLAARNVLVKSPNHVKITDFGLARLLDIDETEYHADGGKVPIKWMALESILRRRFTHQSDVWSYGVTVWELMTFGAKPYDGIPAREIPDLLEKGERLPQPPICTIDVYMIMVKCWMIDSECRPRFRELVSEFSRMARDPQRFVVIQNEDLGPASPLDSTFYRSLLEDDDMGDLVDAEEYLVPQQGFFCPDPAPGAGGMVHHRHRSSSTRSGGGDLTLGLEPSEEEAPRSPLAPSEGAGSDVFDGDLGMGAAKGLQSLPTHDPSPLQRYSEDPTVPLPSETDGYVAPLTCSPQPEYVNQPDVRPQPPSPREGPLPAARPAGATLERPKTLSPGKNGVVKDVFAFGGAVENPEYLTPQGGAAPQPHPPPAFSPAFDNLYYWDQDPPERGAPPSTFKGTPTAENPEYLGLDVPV
T1 sequence (P00533 25-1210): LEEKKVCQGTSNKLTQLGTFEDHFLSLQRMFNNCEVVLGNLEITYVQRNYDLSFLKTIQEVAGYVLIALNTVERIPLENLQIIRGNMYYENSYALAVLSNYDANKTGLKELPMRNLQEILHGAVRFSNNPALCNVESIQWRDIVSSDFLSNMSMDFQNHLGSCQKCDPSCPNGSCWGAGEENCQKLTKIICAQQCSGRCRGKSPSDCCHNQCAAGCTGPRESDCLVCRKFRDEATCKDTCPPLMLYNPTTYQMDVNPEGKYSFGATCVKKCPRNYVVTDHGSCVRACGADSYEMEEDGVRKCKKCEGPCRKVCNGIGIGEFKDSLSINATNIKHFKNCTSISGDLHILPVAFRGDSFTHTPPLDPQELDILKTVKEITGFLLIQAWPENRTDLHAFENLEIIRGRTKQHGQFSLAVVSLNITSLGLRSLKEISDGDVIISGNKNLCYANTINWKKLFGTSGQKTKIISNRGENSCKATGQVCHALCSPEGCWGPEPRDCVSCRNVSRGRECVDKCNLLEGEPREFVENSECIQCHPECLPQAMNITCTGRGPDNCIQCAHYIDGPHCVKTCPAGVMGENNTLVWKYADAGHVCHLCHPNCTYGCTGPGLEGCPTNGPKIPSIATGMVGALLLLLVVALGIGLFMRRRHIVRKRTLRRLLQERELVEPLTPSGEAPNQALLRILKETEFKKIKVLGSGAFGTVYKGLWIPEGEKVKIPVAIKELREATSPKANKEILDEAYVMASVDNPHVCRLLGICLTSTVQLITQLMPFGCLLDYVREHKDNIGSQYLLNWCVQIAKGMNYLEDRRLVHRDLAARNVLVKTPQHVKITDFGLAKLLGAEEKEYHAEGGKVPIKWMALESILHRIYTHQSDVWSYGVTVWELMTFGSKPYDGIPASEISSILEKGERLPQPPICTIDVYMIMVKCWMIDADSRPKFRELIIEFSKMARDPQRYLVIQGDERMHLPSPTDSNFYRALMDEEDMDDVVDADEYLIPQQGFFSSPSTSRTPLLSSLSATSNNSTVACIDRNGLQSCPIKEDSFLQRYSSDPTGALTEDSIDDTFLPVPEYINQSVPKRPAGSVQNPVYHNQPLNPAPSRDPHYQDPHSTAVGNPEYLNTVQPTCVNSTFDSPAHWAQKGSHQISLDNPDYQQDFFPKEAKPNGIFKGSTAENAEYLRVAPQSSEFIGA

Structure (SMILES)	IC50 (EGFR; [1])	IC50 (ErbB2; [1])	IC50 (Colo205 tumor cells)	IC50 (BT474 tumor cells)	IC50 (SK-MEL-28 tumor cells)	IC50 (EGFR; [2])	IC50 (ErbB2; [2])
CN(C)CCOc1ccc(Nc2nccc(-c3sc(NS(=O)(=O)CC(F)(F)F)nc3-c3cccc(NC(=O)c4c(F)cccc4F)c3)n2)cc1 [Example 35, N-[3-(5-{2-[(4-{[2-(Dimethylamino)ethyl]oxy}phenyl)amino]-4-pyrimidinyl}-2-{[(2,2,2-trifluoroethyl)sulfonyl]amino}-1,3-thiazol-4-yl)phenyl]-2,6-difluorobenzamide]	< 100 nM	< 100 nM	> 1000 nM	> 1000 nM	> 1000 nM	–	–
CN(C)c1nc(-c2cccc(NC(=O)c3c(F)cccc3F)c2)c(-c2ccnc(Nc3ccc(N4CCOCC4)c(Cl)c3)n2)s1 [Example 41, N-{3-[5-(2-{[3-Chloro-4-(4-morpholinyl)phenyl]amino}-4-pyrimidinyl)-2-(dimethylamino)-1,3-thiazol-4-yl]phenyl}-2,6-difluorobenzamide trifluoroacetate]	< 100 nM	< 100 nM	> 1000 nM	–	> 1000 nM	–	–
CN(C)c1nc(-c2cccc(NC(=O)c3c(F)cccc3F)c2)c(-c2ccnc(Nc3ccc(OCCN4CCCC4)nc3)n2)s1 [Example 43, N-[3-(2-(Dimethylamino)-5-{2-[(6-{[2-(1-pyrrolidinyl)ethyl]oxy}-3-pyridinyl)amino]-4-pyrimidinyl}-1,3-thiazol-4-yl)phenyl]-2,6-difluorobenzamide]	< 100 nM	< 100 nM	100 to 1000 nM	–	> 1000 nM	–	–
CN1CCN(c2nc(-c3cccc(NC(=O)c4c(F)cccc4F)c3)c(-c3ccnc(Nc4cccc(CN5CCCC5)c4)n3)s2)CC1 [Example 46, 2,6-Difluoro-N-{3-[2-(4-methyl-1-piperazinyl)-5-(2-{[3-(1-pyrrolidinylmethyl)phenyl]amino}-4-pyrimidinyl)-1,3-thiazol-4-yl]phenyl}benzamide]	< 100 nM	< 100 nM	100 to 1000 nM	100 to 1000 nM	> 1000 nM	–	–
O=C(Nc1cccc(-c2nc(N3CCC3)sc2-c2ccnc(Nc3ccc(OCCN4CCCC4)c(Cl)c3)n2)c1)c1c(F)cccc1F [Example 47, N-[3-(2-(1-Azetidinyl)-5-{2-[(3-chloro-4-{[2-(1-pyrrolidinyl)ethyl]oxy}phenyl)amino]-4-pyrimidinyl}-1,3-thiazol-4-yl)phenyl]-2,6-difluorobenzamide]	< 100 nM	< 100 nM	> 1000 nM	> 1000 nM	> 1000 nM	–	–
O=C(Nc1cccc(-c2nc(N3CCCCC3)sc2-c2ccnc(Nc3cccc(CN4CCCC4)c3)n2)c1)c1c(F)cccc1F [Example 73, 2,6-Difluoro-N-{3-[2-(1-piperidinyl)-5-(2-{[3-(1-pyrrolidinylmethyl)phenyl]amino}-4-pyrimidinyl)-1,3-thiazol-4-yl]phenyl}benzamide]	< 100 nM	< 100 nM	100 to 1000 nM	100 to 1000 nM	> 1000 nM	–	–
CCc1nc(-c2cccc(NC(=O)c3c(F)cccc3F)c2)c(-c2ccnc(Nc3ccc(N4CCC(N5CCCCC5)CC4)c(F)c3)n2)s1 [Example 116, N-{3-[5-(2-{[4-(1,4′-Bipiperidin-1′-yl)-3-fluorophenyl]amino}-4-pyrimidinyl)-2-ethyl-1,3-thiazol-4-yl]phenyl}-2,6-difluorobenzamide]	< 100 nM	< 100 nM	100 to 1000 nM	–	> 1000 nM	–	–
O=C(Nc1cccc(-c2nc(CF)sc2-c2ccnc(Nc3ccc(OCCN4CCCC4)c(F)c3)n2)c1)c1c(F)cccc1F [Example 127]	< 100 nM	< 100 nM	> 1000 nM	–	> 1000 nM	–	–
O=C(Nc1cccc(-c2ncoc2-c2ccnc(Nc3cccc(F)c3)n2)c1)c1c(F)cccc1F [Example 141, 2,6-Difluoro-N-[3-(5-{2-[(3-fluorophenyl)amino]-4-pyrimidinyl}-1,3-oxazol-4-yl)phenyl]benzamide]	–	–	–	–	–	> 1000 nM	> 1000 nM
